Experimental findings from US20240254118A1, “PRMT5 INHIBITORS AND USES THEREOF” (Gilead Sciences, Inc., priority 2022, published 2024) are described below.

pEC50: −log10 of the molar value.

Assay [1] relates to HCT116 MTAP-deleted cells. The assay is described as follows: Cell viability assay (CellTiter-Glo, 7 days), HCT116 MTAP-deleted. Conditions: Homo sapiens, HCT-116, 168 h.
Assay [2] relates to SDMA signal (PRMT5 inhibition) in HCT116 MTAP-deleted cells. Briefly: Symmetric di-methyl arginine image-based high content screen assay (SDMA assay), HCT116 MTAP-deleted. The format is cell-based. Conditions: SDMA assay; for pEC50: Homo sapiens, HCT-116, 72 h, 3 days of treatment, cell line not given, taken as HCT116 MTAP-deleted, read-out: EC50 (SDMA assay). An outline of the steps:
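Read-out: per-cell mean SDMA immunofluorescence (Alexa Fluor 488 secondary), cells segmented by DAPI on a high-content imager. Compound exposure in HCT116 MTAP-deleted cells lasted until fixation on Day 3; overnight 4° C primary anti-SDMA antibody staining.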

The mark [3] stands for this setting: taken as HCT116 WT versus MTAP-deleted.
Where [4] appears, read: taken as HCT116 WT vs MTAP-deleted.

What is called CC50 is the concentration at which the toxic effect on the cells reaches its halfway point. A lower CC50 goes with greater toxicity to the cells. Broadly, the pEC50 is the negative decadic logarithm of the EC50, by convention in mol/L. In assay [1], `CN(C(=O)C1CC1)N(Cc1ccc(C#CC2CCCO2)cc1F)C(=O)c1ccc2nc(N)c3cnn(C)c3c2c1` (stereo not drawn) [Example 391, 4-amino-N′-(cyclopropanecarbonyl)-N-(2-fluoro-4-((tetrahydrofuran-2-yl)ethynyl)benzyl)-N′,1-dimethyl-1H-pyrazolo[4,3-c]quinoline-8-carbohydrazide] displayed a CC50 of under 100 nM. For the same molecule, in assay [2], the pEC50 is 8.30 to 9.00. Also, the “EC50 selectivity (SDMA assay)” value in assay [2] (setting [3]) is 64.
Turning to `Cn1ncc2c(N)nc3ccc(C(=O)N(Cc4ccc(C(F)(F)F)nc4)N4CCCC4=O)cc3c21` [Example 392, 4-amino-1-methyl-N-(2-oxopyrrolidin-1-yl)-N-[[6-(trifluoromethyl)-3-pyridyl]methyl]pyrazolo[4,3-c]quinoline-8-carboxamide], in assay [1], the CC50 was under 100 nM. In assay [2], the pEC50 is 8.30 to 9.00. In assay [2] (setting [3]), the “EC50 selectivity (SDMA assay)” value is 285.
Taken in the same sequence, the figures for `CN(C(=O)C1CC1)N(Cc1ccc(C(F)(F)F)nc1)C(=O)c1ccc2nc(N)c3cnn(C)c3c2c1` [Example 393, 4-amino-N′-(cyclopropanecarbonyl)-N′,1-dimethyl-N-[[6-(trifluoromethyl)-3-pyridyl]methyl]pyrazolo[4,3-c]quinoline-8-carbohydrazide] were under 100 nM, 8.30 to 9.00 and 380.
`COCCN(C)N(Cc1ccc(C(F)(F)F)cc1F)C(=O)c1cc2c(cc1F)nc(N)c1cnn(C)c12` [Example 395, 4-amino-7-fluoro-N-(2-fluoro-4-(trifluoromethyl)benzyl)-N′-(2-methoxyethyl)-N′,1-dimethyl-1H-pyrazolo[4,3-c]quinoline-8-carbohydrazide] yielded a CC50 in assay [1] of under 100 nM. Besides, the pEC50 in assay [2] was 8.30 to 9.00. Besides, in assay [2] (setting [3]), the “EC50 selectivity (SDMA assay)” value came out at 33.
In assay [1], `COCCN(C)N(Cc1ccc(C(F)(F)F)cc1F)C(=O)c1ccc2nc(N)c3cnn(C)c3c2c1` [Example 396, 4-amino-N-[[2-fluoro-4-(trifluoromethyl)phenyl]methyl]-N′-(2-methoxyethyl)-N′,1-dimethyl-pyrazolo[4,3-c]quinoline-8-carbohydrazide] registered a CC50 of under 100 nM. Moreover, the negative logarithm of the EC50 (pEC50) in assay [2] was 8.30 to 9.00. In assay [2] (setting [4]), the “EC50 selectivity (SDMA assay)” value is reported as 135.
The matching figures for `Cn1ncc2c(N)nc3ccc(C(=O)N(Cc4ccc(C(F)(F)F)cc4F)N4CCOCC4)cc3c21` [Example 397, 4-amino-N-[[2-fluoro-4-(trifluoromethyl)phenyl]methyl]-1-methyl-N-morpholino-pyrazolo[4,3-c]quinoline-8-carboxamide]: under 100 nM, 8.30 to 9.00 and 78.
Take `Cn1ncc2c(N)nc3cc(F)c(C(=O)N(Cc4ccc(C(F)(F)F)cc4F)N4CCOCC4)cc3c21` [Example 398, 4-amino-7-fluoro-N-[[2-fluoro-4-(trifluoromethyl)phenyl]methyl]-1-methyl-N-morpholino-pyrazolo[4,3-c]quinoline-8-carboxamide]: the CC50 in assay [1] is under 100 nM. Besides, the pEC50 in assay [2] was 8.30 to 9.00. The “EC50 selectivity (SDMA assay)” value in assay [2] (setting [4]) was determined as 31.
Taken in the same sequence, the figures for `CN(C(=O)CC1CC1)N(Cc1ccc(C(F)(F)F)cn1)C(=O)c1ccc2nc(N)c3cnn(C)c3c2c1` [Example 399, 4-amino-N′-(2-cyclopropylacetyl)-N′,1-dimethyl-N-[[5-(trifluoromethyl)-2-pyridyl]methyl]pyrazolo[4,3-c]quinoline-8-carbohydrazide] were under 100 nM, 8.30 to 9.00 and 358.
The matching figures for `CC(=O)N(C)N(Cc1cc2cc(Cl)ccn2n1)C(=O)c1ccc2nc(N)c3cnn(C)c3c2c1` [Example 400, N′-acetyl-4-amino-N-((5-chloropyrazolo[1,5-a]pyridin-2-yl)methyl)-N′,1-dimethyl-1H-pyrazolo[4,3-c]quinoline-8-carbohydrazide]: under 100 nM, over 9.00 and 278.
